Blank lines part the entries; values can stand above or below the compound they belong to. Calls of active or inactive are those of the source. The rule behind the calls is not given here.
What was measured:
[1] = target: T1, Serine/threonine-protein kinase 17A (Homo sapiens, UniProt Q9UEE5); experiment: Inhibition of human N-terminal His-tagged/ TEV cleavage fused DRAK1 (39 to 369 residues) expressed in Escherichia coli using KKLNRTLSFAEPG peptide as substrate in presence of [gamma-33P]ATP by radiometric based scintillation proximity assay
T1 sequence (Q9UEE5 whole entry): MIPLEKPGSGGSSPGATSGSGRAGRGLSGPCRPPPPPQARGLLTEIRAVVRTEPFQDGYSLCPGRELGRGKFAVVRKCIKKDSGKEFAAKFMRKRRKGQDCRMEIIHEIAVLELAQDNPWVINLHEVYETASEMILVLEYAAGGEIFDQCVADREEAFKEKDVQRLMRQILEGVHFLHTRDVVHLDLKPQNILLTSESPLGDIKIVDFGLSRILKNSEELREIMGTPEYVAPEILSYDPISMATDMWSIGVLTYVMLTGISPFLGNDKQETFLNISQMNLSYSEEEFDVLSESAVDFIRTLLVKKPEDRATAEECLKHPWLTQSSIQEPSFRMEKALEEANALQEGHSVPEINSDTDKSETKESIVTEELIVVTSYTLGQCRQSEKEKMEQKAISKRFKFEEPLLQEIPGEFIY

[2] = Binding affinity to wild type full length human CK2alpha2 (1 to 350 residues) expressed in mammalian expression system assessed as change in melting temperature by SYPRO orange dye based DSF assay
[3] = target: Casein kinase II subunit alpha (Homo sapiens, UniProt P68400); experiment: Binding affinity to wild type full length human CK2alpha1 (1 to 391 residues) expressed in mammalian expression system assessed as change in melting temperature at 10 uM by SYPRO orange dye based DSF assay
Casein kinase II subunit alpha, sequence (P68400 whole entry, looked up, the tested form may be a part): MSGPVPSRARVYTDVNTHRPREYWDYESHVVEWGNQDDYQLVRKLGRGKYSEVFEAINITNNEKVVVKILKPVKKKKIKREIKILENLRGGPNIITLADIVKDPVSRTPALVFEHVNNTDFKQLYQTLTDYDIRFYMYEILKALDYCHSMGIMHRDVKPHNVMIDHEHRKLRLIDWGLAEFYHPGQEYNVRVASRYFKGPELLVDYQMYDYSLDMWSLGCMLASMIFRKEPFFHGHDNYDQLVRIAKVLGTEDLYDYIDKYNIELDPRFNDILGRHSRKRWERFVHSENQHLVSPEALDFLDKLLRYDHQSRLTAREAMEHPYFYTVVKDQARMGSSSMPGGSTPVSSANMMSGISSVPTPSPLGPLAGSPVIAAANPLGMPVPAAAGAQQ

[4] = target: T2, Serine/threonine-protein kinase 17A (Homo sapiens) (UniProt Q9UEE5); experiment: Binding affinity to human N-terminal His-tagged/ TEV cleavage fused DRAK1 (39 to 369 residues) expressed in Escherichia coli assessed as change in melting temperature at 10 uM by SYPRO orange dye based DSF assay
T2 sequence (whole entry): T1 sequence (Q9UEE5 whole entry)

[5] = target: T1, Serine/threonine-protein kinase 17A; experiment: Inhibition of human N-terminal His-tagged/ TEV cleavage fused DRAK1 (39 to 369 residues) transfected in HEK293T cells using NanoBRET NanoGlo as substrate incubated for 2 hrs by NanoBRET assay; format: cell-based
[6] = tested on: LN-18; experiment: Antiproliferative activity against human LN-18 cells assessed as reduction in cell viability after 1 to 7 days by resazurin dye based fluorimetric analysis; format: functional
[7] = Cytotoxicity against human HEK293T cells assessed as increase in total apoptotic cells incubated for 36 hrs by Annexin V staining based method; format: toxicity, cell-based, HEK-293T
[8] = tested on: HEK-293T; experiment: Cytotoxicity against human HEK293T cells at 1 uM incubated for 18 hrs; format: toxicity, cell-based
[9] = target: T1, Serine/threonine-protein kinase 17A; experiment: Binding affinity to human N-terminal His-tagged/ TEV cleavage fused DRAK1 (39 to 369 residues) expressed in Escherichia coli by isothermal titration calorimetry
[10] = tested on: T98G; experiment: Antiproliferative activity against human T98G cells assessed as reduction in cell viability measured after 1 to 7 days by resazurin dye based fluorimetric analysis; format: functional
[11] = tested on: HEK-293T; experiment: Induction of morphological changes in human HEK293T cells assessed as mitochondrial damage at 1 to 10 uM incubated for 18 hrs by confocal fluorescence microscopic analysis; format: toxicity, cell-based; settings: dose 1-10 µM
[12] = tested on: LN-229; experiment: Antiproliferative activity against human LN-229 cells assessed as reduction in cell viability after 1 to 7 days by resazurin dye based fluorimetric analysis; format: functional
[13] = tested on: D-247MG; experiment: Antiproliferative activity against human D-247MG cells assessed as reduction in cell viability after 1 to 7 days by resazurin dye based fluorimetric analysis; format: functional
[14] = target: T2, Serine/threonine-protein kinase 17A (Homo sapiens); experiment: Inhibition of human N-terminal His-tagged/ TEV cleavage fused DRAK1 (39 to 369 residues) expressed in Escherichia coli assessed as change in enthalpy by isothermal titration calorimetry
[15] = Induction of morphological changes in human MRC9 cells assessed as microtubule damage at 1 to 10 uM incubated for 18 hrs by confocal fluorescence microscopic analysis; format: toxicity, cell-based; settings: mrc9, 18 h, dose 1-10 µM
[16] = Cytotoxicity against human MRC9 cells assessed as increase in total apoptotic cells at 10 uM incubated for 36 hrs by Annexin V staining based method; format: toxicity, cell-based; settings: mrc9, 36 h
[17] = tested on: T98G; experiment: Induction of morphological changes in human T98G cells assessed as change in cell shape at 12.5 uM incubated for 5 days by microscopy analysis; format: functional, cell-based; settings: time 5.0 day
[18] = tested on: U2OS; experiment: Cytotoxicity against human U2OS cells assessed as increase in total apoptotic cells at 10 uM incubated for 36 hrs by Annexin V staining based method; format: functional, cell-based
[19] = tested on: HEK-293T; experiment: Induction of morphological changes in human HEK293T cells assessed as microtubule damage at 1 to 10 uM incubated for 18 hrs by confocal fluorescence microscopic analysis; format: toxicity, cell-based; settings: dose 1-10 µM
[20] = tested on: HEK-293T; experiment: Cytotoxicity against human HEK293T cells assessed as increase in total apoptotic cells at 10 uM incubated for 36 hrs by Annexin V staining based method; format: toxicity, cell-based
[21] = tested on: HEK-293T; experiment: Cytotoxicity against human HEK293T cells assessed as increase in total apoptotic cells at 10 uM incubated for 18 hrs by Annexin V staining based method; format: toxicity, cell-based
[22] = tested on: HEK-293T; experiment: Cytotoxicity against human HEK293T cells at 1 uM incubated for 36 hrs; format: toxicity, cell-based
[23] = tested on: U2OS; experiment: Cytotoxicity against human U2OS cells assessed as increase in total apoptotic cells incubated for 36 hrs by Annexin V staining based method; format: functional, cell-based
[24] = Induction of morphological changes in human MRC9 cells assessed as mitochondrial damage at 1 to 10 uM incubated for 18 hrs by confocal fluorescence microscopic analysis; format: toxicity, cell-based; settings: mrc9, 18 h, dose 1-10 µM
[25] = Cytotoxicity against human MRC9 cells at 1 uM incubated for 36 hrs; format: toxicity, cell-based; settings: mrc9, 36 h
[26] = target: T2, Serine/threonine-protein kinase 17A (Homo sapiens); experiment: Inhibition of human N-terminal His-tagged/ TEV cleavage fused DRAK1 (39 to 369 residues) expressed in Escherichia coli assessed as change in entropy by isothermal titration calorimetry
[27] = target: T2, Serine/threonine-protein kinase 17A (Homo sapiens); experiment: Inhibition of human N-terminal His-tagged/ TEV cleavage fused DRAK1 (39 to 369 residues) expressed in Escherichia coli assessed as gibbs free energy change by isothermal titration calorimetry
[28] = Cytotoxicity against human MRC9 cells assessed as increase in total apoptotic cells incubated for 36 hrs by Annexin V staining based method; format: toxicity, cell-based

IC50 [1]: 0.155 µM
ΔTm [2]: 4.9 °C
ΔTm [3]: 1.7 °C
ΔTm [4]: 9.3 °C
IC50 [5]: 0.171 µM
Structure (SMILES): O=C(NCc1ccccc1)c1ccc2cc1OCCOCCNc1ccn3ncc-2c3n1

ΔTm [2]: 11.3 °C
ΔTm [3]: 10.6 °C
ΔTm [4]: 7.9 °C
Structure (SMILES): O=C(O)c1ccc2cc1OCCOCCNc1ccn3ncc-2c3n1

IC50 [1]: 0.015 µM
Kd [9]: 0.009 µM
ΔTm [2]: 0.1 °C
ΔTm [3]: 1.2 °C
deltaH [14]: -28.4 kJ/mol
ΔTm [4]: 12.3 °C
IC50 [5]: 0.07 µM
deltaS [26]: 11.6 cal/mol.K
deltaG [27]: -42.3 kJ/mol
Structure (SMILES): C[C@H](NC(=O)c1ccc2cc1OCCOCCNc1ccn3ncc-2c3n1)c1ccncc1
EC50 [6]: 1.97 µM
EC50 at 36 h [7]: > 10 µM
Activity [8]: Non-Toxic
EC50 [10]: 2.34 µM
Activity [11]: Non-Toxic
EC50 [12]: 2.2 µM
EC50 [13]: 1.25 µM
Activity [15]: Non-Toxic
Activity [16]: Toxic
Activity [17]: Active
Activity [18]: Active
Activity [19]: Non-Toxic
Activity [20]: Toxic
Activity [21]: Toxic
Activity [22]: Non-Toxic
EC50 [23]: > 10 µM
Activity [24]: Non-Toxic
Activity [25]: Non-Toxic
EC50 at 36 h [28]: > 10 µM
